Tested on: T3G1
Test: Substrate conversion (oxyfunctionalization) by purified enzyme T3G1 with H2O2
Format: biochemical, Proteobacteria bacterium
Conditions: 1 mM substrate; for % conversion: 2 mM H2O2 (1 mM at start, to 2 mM after 90 min), 7 μM enzyme T3G1 (5 + 2 μM)
Source text: This prompted us to test the representative enzyme T3G1 against a large panel of various substrates.

Compound	% conversion	further results
C[C@]12CCC(=O)C=C1CCC2=O [(S)-Hajos-Wiechert ketone]	trace	
CC(=O)CCC1C(C)=CCCC1(C)C (stereo not drawn) [7,8-dihydro-α-ionone]	50%	
CC1=CCCC(C)(C)C1/C=C/C(C)O (stereo not drawn) [α-ionol]	61%	
C=CCCCC [Substrate 1-hexene, 1-hexene]	trace	
C=CCCCCCC [Substrate 1-octene, 1-octene]	65%	
CC/C=C/CC [trans-3-hexene]	40%	
C=C(C)[C@@H]1CCC2=CCC[C@@H](C)[C@]2(C)C1 [valencene]	3%	
CCc1ccccc1 [ethylbenzene]	trace	
C1=C\CCCCCC/1 [cis-cyclooctene]	83%	
CC(=O)/C=C/C1=C(C)CCCC1(C)C [trans-β-ionone]	48%	
COc1cc(C)ccc1O [creosol]	trace	
C=CCCCCC [Substrate 1-heptene, 1-heptene]	trace	
(−)-carveol	4%	
terpinene	73%	
C/C=C\C(=O)C1C(C)=CCCC1(C)C (stereo not drawn) [α-damascone]	26%	
C/C=C/CCC [trans-2-hexene]	trace	
C=Cc1ccccc1 [styrene]	61%	% ee (printed beside % conversion) (2 mM H2O2, 7 μM T3G1): (17% ee)
CC(C)NCC(O)COc1cccc2ccccc12 (centres unmarked) [propanolol, reference compound]	5%	
C=CC(=C)C [2-methyl-1,3-butadiene]	trace	

Compound	% conversion	further results
C/C=C\CCCC [cis-2-heptene]	81%	
CCCCCCCC/C=C\CCCCCCCC(=O)O [oleic acid]	19%	
C1=Cc2ccccc2C1 [indene]	27%	
C=C(C)CC [2-methyl-1-butene]	trace	
CCC/C=C/CCC [trans-4-octene]	99%	
CC(=O)/C=C/C1C(C)=CCCC1(C)C (stereo not drawn) [α-ionone]	61%	
CC=Cc1ccccc1 [β-methyl-styrene]	86%	
C=C(C)C1CC=C(C)CC1 (single isomer, unassigned; (+)) [(+)-limonene]	81%	% cis (of product, printed beside % conversion) (2 mM H2O2, 7 μM T3G1): (97.3% cis)
C/C=C/CCCCC [trans-2-octene]	99%	
C=CCCCCCCCC [Substrate 1-decene, 1-decene]	13%	
C(=C\c1ccccc1)/c1ccccc1 [trans-stilbene]	17%	
CC12CCC(=O)C=C1CCCC2=O (centres unmarked) [Wieland-miescher ketone]	10%	
C1=CCCCC1 [cyclohexene]	32%	
C=CCCCCCCC=C [1,9-decadiene]	15%	% double epoxide (2 mM H2O2, 7 μM T3G1): 13 % double epoxide
CSc1ccccc1 [thioanisole]	40%	% ee (printed beside % conversion) (2 mM H2O2, 7 μM T3G1): (74% ee)
CC/C=C/CCCC [trans-3-octene]	99%	
C/C=C/C(=O)C1C(C)C=CCC1(C)C (centres unmarked) [δ-damascone]	16%	
C/C=C\CCC [cis-2-hexene]	trace	

Source: patent publication US20240318150A1, “METHODS FOR OXYFUNCTIONALIZATION OF VARIOUS SUBSTRATES USING BACTERIAL ENZYMES” (GECCO Biotech B.V., priority 2021, published 2024)
